Test results published in the NIST ThermoML archive (doi:10.1016/j.jct.2016.05.027).
Numbers after ± are expanded uncertainties.

Experiments:
[1] = Crystal
[2] = Molar enthalpy of transition or fusion; conditions: Crystal; DSC

## Cc1cccc([N+](=O)[O-])c1N [2-methyl-6-nitroaniline]
[1]; 298.15 K, 101.33 kPa, flotation method
  mass density: 1242.4 ± 2.6 kg/m3
[1]; DTA
  Normal melting temperature: 93.60 ± 1.1 °C
[2]
  Molar enthalpy of transition or fusion: 5.77 ± 0.225 kcal/mol
